Experiments:
rat [1] = details: Prenatal developmental toxicity study, sprague dawley, Oral, Gavage/Intubation, dose end: 15 GD
rat [2] = details: Subchronic oral toxicity in rodents, sprague dawley, Feed, dose end: 90 day, group: cholinesterase, cholinesterase / cholinesterase / cholinesterase / brain cholinesterase (che)
rat [3] = details: Combined chronic toxicity/carcinogenicity, sprague dawley, Oral, Feed, dose end: 28 month
dog = details: Chronic toxicity, beagle, Oral, Feed, dose end: 52 week
mouse [4] = details: Subchronic oral toxicity in rodents, b6c3f1, Feed, dose end: 13 week, group: systemic, systemic / pathology microscopic / liver / degeneration + systemic / pathology microscopic / liver / hyalinization
rat [5] = details: Prenatal developmental toxicity study, sprague dawley, Oral, Gavage/Intubation, dose end: 15 GD; remark: listed apart in the source
mouse [6] = details: Combined chronic toxicity/carcinogenicity, b6c3f1, Oral, Feed, dose end: 2 year, group: systemic
mouse [7] = details: Multigenerational reproductive toxicity study, cd1, Oral, Water, dose end: 2 generation
rat [8] = details: Prenatal developmental toxicity study, sprague dawley, Oral, Gavage/Intubation, dose end: 20 GD
rat [9] = details: Subchronic oral toxicity in rodents, fischer, Feed, dose end: 13 week, group: systemic
rabbit = details: Prenatal developmental toxicity study; new zealand white; Oral; Gavage/Intubation; dose end: 19 GD; group: maternal; reproductive / reproductive performance / pregnancy / pregnancy + reproductive / reproductive performance / premature delivery / premature …
mouse [10] = details: Multigenerational reproductive toxicity study, cd1, Oral, Water, dose end: 2 generation; remark: listed apart in the source
[11] = group: developmental, developmental / developmental malformation / bone / ossification sites
[12] = group: maternal, systemic / in life observation / body weight / body weight + systemic / in life observation / body weight / body weight gain + systemic / in…
[13] = group: cholinesterase, cholinesterase / cholinesterase / cholinesterase / brain cholinesterase (che) + cholinesterase / cholinesterase / cholinesterase / …
[14] = group: systemic, systemic / pathology microscopic / adrenal gland / pheochromocytoma benign + systemic / in life observation / clinical signs / aggressive …
[15] = group: cholinesterase, cholinesterase / cholinesterase / cholinesterase / brain cholinesterase (che)
[16] = group: systemic, systemic / hematology / erythrocyte (rbc) count differential / erythrocyte (rbc) + systemic / hematology / hematocrit (hct) / hematocrit (…
[17] = group: developmental, developmental / developmental malformation / bone / absent + developmental / developmental malformation / bone / delayed ossification + …
[18] = group: maternal, systemic / in life observation / body weight / body weight + systemic / in life observation / body weight / body weight gain + reproductive…
[19] = systemic / pathology microscopic / liver / degeneration
[20] = systemic / pathology microscopic / liver / degeneration + systemic / pathology microscopic / lung / hyperplasia + systemic / pathology …
[21] = group: offspring, developmental / developmental malformation / eye / absent + developmental / developmental malformation / mouth / jaw / cleft lip + …
[22] = group: offspring, systemic / in life observation / body weight / offspring (pup) weight
[23] = group: parental, systemic / in life observation / water consumption / water consumption + systemic / organ weight / liver / absolute + systemic / in life …
[24] = group: parental, systemic / pathology gross / sperm measure / sperm count
[25] = group: reproductive, reproductive / offspring survival early / live fetuses / live fetuses
[26] = group: reproductive, reproductive / reproductive performance / fertility / fertility + reproductive / offspring survival early / live fetuses / live fetuses
[27] = group: developmental, developmental / developmental malformation / bone / absent + developmental / developmental malformation / bone / double-tipped + …
[28] = group: maternal, reproductive / reproductive performance / gestational length / gestational length + systemic / pathology microscopic / kidney / dilatation…
[29] = systemic / clinical chemistry / creatinine / creatinine + systemic / clinical chemistry / urea nitrogen / urea nitrogen + systemic / in life…
[30] = systemic / clinical chemistry / urea nitrogen / urea nitrogen
[31] = group: offspring, developmental / developmental malformation / bone / absent + developmental / developmental malformation / bone / fused + developmental / …
[32] = group: parental, systemic / in life observation / mortality / mortality
[33] = group: reproductive, reproductive / reproductive performance / fertility / fertility + reproductive / offspring survival early / litter size / litter size

## COP(=O)(NC(C)=O)SC (centres undefined) [Acephate]
Rat [1]; [11]
  LEL: 75 mg/kg/day
  LOAEL: 75 mg/kg/day
  NEL: 20 mg/kg/day
  NOAEL: 20 mg/kg/day
Rat [1]; [12]
  LEL: 20 mg/kg/day
  LOAEL: 20 mg/kg/day
  NEL: 5 mg/kg/day
  NOAEL: 5 mg/kg/day
Rat [2]
  LEL: 0.12 mg/kg/day
  LOAEL: 0.12 mg/kg/day
  NEL: < 0.12 mg/kg/day
  NOAEL: < 0.12 mg/kg/day
Rat [3]; [13]
  LEL: 0.25 mg/kg/day
  LOAEL: 35 mg/kg/day
  NEL: < 0.25 mg/kg/day
  NOAEL: 2.5 mg/kg/day
Rat [3]; [14]
  LEL: 0.25 mg/kg/day
  LOAEL: > 35 mg/kg/day
  NEL: < 0.25 mg/kg/day
  NOAEL: ≥ 35 mg/kg/day
dog; [15]
  LEL: 0.27 mg/kg/day
  LOAEL: 0.27 mg/kg/day
  NEL: < 0.27 mg/kg/day
  NOAEL: < 0.27 mg/kg/day
dog; [16]
  LEL: 20.2 mg/kg/day
  LOAEL: 20.2 mg/kg/day
  NEL: 3.11 mg/kg/day
  NOAEL: 3.11 mg/kg/day

## OCCO [Ethylene glycol]
Mouse [4]
  LEL: 3750 mg/kg/day
  LOAEL: > 7500 mg/kg/day
  NEL: 1880 mg/kg/day
  NOAEL: ≥ 7500 mg/kg/day
Rat [5]; [17]
  LEL: 2500 mg/kg/day
  LOAEL: > 2500 mg/kg/day
  NEL: < 2500 mg/kg/day
  NOAEL: ≥ 2500 mg/kg/day
Rat [5]; [18]
  LEL: 2500 mg/kg/day
  LOAEL: > 2500 mg/kg/day
  NEL: < 2500 mg/kg/day
  NOAEL: ≥ 2500 mg/kg/day
Mouse [6]; [19]
  LEL: 1500 mg/kg/day
  NEL: < 1500 mg/kg/day
Mouse [6]; [20]
  LOAEL: > 12000 mg/kg/day
  NOAEL: ≥ 12000 mg/kg/day
Mouse [7]; [21]
  LOAEL: > 2000 mg/kg/day
  NOAEL: ≥ 2000 mg/kg/day
Mouse [7]; [22]
  LEL: 667 mg/kg/day
  NEL: < 667 mg/kg/day
Mouse [7]; [23]
  LOAEL: > 2000 mg/kg/day
  NOAEL: ≥ 2000 mg/kg/day
Mouse [7]; [24]
  LEL: 667 mg/kg/day
  NEL: < 667 mg/kg/day
Mouse [7]; [25]
  LEL: 1330 mg/kg/day
  NEL: 667 mg/kg/day
Mouse [7]; [26]
  LOAEL: > 2000 mg/kg/day
  NOAEL: ≥ 2000 mg/kg/day
Rat [8]; [27]
  LOAEL: > 2250 mg/kg/day
  NEL: 250 mg/kg/day
  NOAEL: ≥ 2250 mg/kg/day
Rat [8]; group: developmental, developmental / developmental malformation / kidney / size + systemic / in life observation / body weight / fetal weight
  LEL: 1250 mg/kg/day
Rat [8]; [28]
  LEL: 1250 mg/kg/day
  LOAEL: > 2250 mg/kg/day
  NEL: 250 mg/kg/day
  NOAEL: ≥ 2250 mg/kg/day
Rat [9]; [29]
  LOAEL: 1250 mg/kg/day
  NOAEL: 625 mg/kg/day
Rat [9]; [30]
  LEL: 160 mg/kg/day
  NEL: < 160 mg/kg/day
rabbit
  LEL: 2000 mg/kg/day
  LOAEL: > 2000 mg/kg/day
  NEL: 1000 mg/kg/day
  NOAEL: ≥ 2000 mg/kg/day
Mouse [10]; [31]
  LEL: 1330 mg/kg/day
  LOAEL: > 1330 mg/kg/day
  NEL: 667 mg/kg/day
  NOAEL: ≥ 1330 mg/kg/day
Mouse [10]; [32]
  LEL: 667 mg/kg/day
  LOAEL: > 1330 mg/kg/day
  NEL: 333 mg/kg/day
  NOAEL: ≥ 1330 mg/kg/day
Mouse [10]; group: reproductive, reproductive / reproductive performance / fertility / fertility
  NEL: 667 mg/kg/day
Mouse [10]; [33]
  LEL: 1330 mg/kg/day
  LOAEL: > 1330 mg/kg/day
  NOAEL: ≥ 1330 mg/kg/day

Reference: EPA's ToxRefDB 2
